Measured values reported in PubChem BioAssay AID651697 (Sanford-Burnham Center for Chemical Genomics, 2012).

Target: Sentrin-specific protease 1 (Homo sapiens) (UniProt Q9P0U3)
Assay: SENP1 catalytic domain blockers, concentration series – biochemical, kinetic FRET, dose response (AID 651697)
Details: recombinant SENP1 catalytic domain, kinetic FRET protease assay

Sequence of Sentrin-specific protease 1 (Homo sapiens) (Q9P0U3 419-644 limits assumed): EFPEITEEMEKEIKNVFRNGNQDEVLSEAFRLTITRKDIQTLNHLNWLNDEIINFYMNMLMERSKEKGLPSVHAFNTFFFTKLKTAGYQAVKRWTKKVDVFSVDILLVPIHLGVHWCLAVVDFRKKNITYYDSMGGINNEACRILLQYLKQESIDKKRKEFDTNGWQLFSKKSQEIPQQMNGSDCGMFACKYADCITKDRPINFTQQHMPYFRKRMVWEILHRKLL

**Q.** For `O=C(c1ccccc1)[C@@H]1[C@@H]2C(=O)N(c3ccc(F)cc3)C(=O)[C@@H]2C2CCCN21` (some centres undefined), which IC50 is on record?
**A.** The IC50 was 7.71 µM.

**Q.** How did the IC50 turn out when `COCCNC(=O)c1cccc2c1C(=O)c1ccc(N3CCOCC3)cc1S2(=O)=O` was run?
**A.** The IC50 was 14.2 µM.

**Q.** How did the IC50 turn out when `Oc1ccc(Cl)cc1C1=Nc2ccccc2N=C(c2ccco2)C1` was run?
**A.** Its IC50 is 8.37 µM.

**Q.** With `Cc1nc2ccc(NS(=O)(=O)c3ccc(F)cc3F)cc2s1` as the compound, how does the IC50 read?
**A.** The IC50 was 18.5 µM.
